“Also recorded” adds a separate entry of the source. Read-outs that look alike come from different tables or passages of the source. Marks after values point to notes of the source that are not given here.
Experiments:
nNOS = nNOS expression in cultured primary smooth muscle cells from porcine cerebral arteries; format: cell-based; details: 30 μM and 60 μM
COX-2 [1] = test: LPS-induced COX-2 mRNA in Bcl-2-overexpressed RAW264.7 cells; format: cell-based, mouse; details: 20 μg/ml, LPS 100 ng/ml
COX-2 [2] = test: LPS-induced COX-2 expression in RAW264.7 macrophages (western/northern blot); format: cell-based, mouse
Description: (§1) Cells. RAW264.7, a mouse macrophage cell line, was obtained from American Type Culture Collection. Cells were cultured in RPMI-1640 medium (available from Gibco Life Technology, in Gaithersburg, Md.) supplemented with 2 mM L-glutamine, antibiotics (100 units/ml penicillin-A and 100 units/ml streptomycin) and 10% heat-inactivated fetal bovine serum (Gibco/BRL) and maintained at 37° C in a humidified incubator containing 5% CO2.
(§2) Western blots. Total cellular extract, cytosolic fractions (for IkB) and nuclear fraction (for p65 antibody) were prepared according to Muller et al., Immunobiology, 187, 233-256, 1993 and separated on sodium dodecyl sulfatepolyacrylamide minigels (8% for iNOS or COX-2, and 10% for IkB or p65) and transferred to immobilon polyvinylidene difluoride membranes (Millipore, Bedford, Mass.). The membrane was incubated overnight at 4° C. with 1% bovine serum albumin and then incubated with anti-iNos, COX-2, α-Tubulin monoclonal antibodies (Transduction Laboratories, Lexington, Ky.), anti-IkB or anti-p65 polyclonal antibodies (Santa Cruz Biochemicals, Santa Cruz, Calif.). iNOS, IkB, p65, Cox-2, α-Tubulin were detected by NBT and BCIP staining (Sigma Chemical Co., St. Louis, Mo.).

iNOS = test: LPS-induced iNOS expression in RAW264.7 macrophages (western/northern blot); format: cell-based, mouse
Description: as §1, §2
Northern blot analysis. Total RNA (20 μg/lane) were separated by electrophoresis on 1.2% agarose gel containing 6.7% formaldehyde and transformed to a Hybond-N nylon membrane (American Life Science) in 20×standard saline citrate (3 M sodium chloride and 0.3 M sodium citrate, pH 7.0). After heating at 80° C. for 2 hours and prehybridization for 4 hours, the filters were hybridized with ^32P-labeled murine iNOS cDNA probes at a concentration of 3×10^6 cpm/ml for 16-18 hours at 42° C. The probe was labeled with [α-32P] dCTP by using Random Primer labeling kit (Stratagene, La Jolla, Calif.). Then, the filters were washed, dried and autoradiographed with Kodak-X-Omat XAR-film using intensifying screens at −80° C.

[3] = test system: porcine cerebral arteries; test: In vitro tissue bath vasorelaxation of precontracted porcine cerebral arteries; details: for EC50: Sus scrofa; for U-46619-induced active muscle tone: 0.1-30 μM
[4] = test system: porcine cerebral arteries; test: L-arginine-induced relaxation in LPS-incubated cerebral arteries without endothelial cells; details: LPS 10 μg/ml 20 hours, concomitant 60 μM, U-46619 tone
Description: In vitro tissue bath studies. The arterial segment (4 mm long) of the circle of Willis was dissected and cannulated with a stainless-steel rod (30-28 gauge) of hemispherical section, and a short piece of platinum wire, and mounted horizontally in a plastic tissue bath containing 6 ml of Krebs' bicarbonate solution. The platinum wire was bent into a U shape and anchored to a gate. The stainless-steel rod was connected to a stain gauge transducer (UC3, available from Gould) for isometric recording of changes in force. The temperature of Krebs' solution in the tissue baths, equilibrated with 95% O2 and 5% CO2, was maintained at 37° C. Tissues were equilibrated in the Krebs' solution for an initial 30 minutes and were mechanically stretched to a resting tension of 0.75 g for another 30 minutes. The segments of the circle of Willis were precontracted with 9,11-dideoxy-9α,11α-epoxymethanoprostagladin F2α(U-46619, 1 μM) to induce an active muscle tone of 0.5-0.75 g. Experimental drugs such as L-arginine and Oroxylin A of various concentrations, and TNS at 2,4,8 Hz were applied to induce relaxation. The arteries were then washed with pre-warmed Krebs' solution. […] Stimulation parameters were continuously monitored on a Tektronix oscilloscope. […] The magnitude of a vasodilator response induced by experimental drugs and TNS was expressed as a percentage of the maximum response induced by PPV. […]

[5] = conclusion from blocker experiments

Structure (SMILES): COc1c(O)cc2oc(-c3ccccc3)cc(=O)c2c1O [oroxylin A, 5,7-dihydroxy-6-methoxy flavone]
- expression of nNOS (nNOS): did not affect
- LPS-induced COX-2 mRNA (COX-2 [1]): inhibited
- LPS-induced COX-2 gene expression (protein and mRNA) (COX-2 [2]): most potent among the compounds tested; also recorded: inhibited
- blocking LPS-induced iNOS gene expression, comparison among compounds tested (iNOS): most potent among the compounds tested
- LPS-induced iNOS protein (iNOS; 100 ng/ml LPS, western blot): inhibited LPS-induced iNOS protein in a concentration-dependent manner
- transient relaxation ([3]; 60 μM, KCl (80 mM)-pre-contracted arterial rings, n=5): 20.2±1.63 % of PPV-induced maximum relaxation
- relaxation ([3]; 60 μM, same arteries contracted with U-46619, n=5): 95.1±4.31 % of PPV-induced maximum relaxation
- sustained relaxation in KCl-precontracted arteries ([3]; 80 mM KCl, 1-60 μM, with or without endothelial cells): did not induce sustained relaxation; also recorded: failed to induce sustained relaxation
- Percent of Maximum Control Relaxation ([3]; Oroxylin A 3 μM, after 4-AP (10 mM)): 1.8 ± 1.6%
- Percent of Maximum Control Relaxation ([3]; Oroxylin A 3 μM, after ETI (10 μM)): 21.4 ± 2.1%
- Percent of Maximum Control Relaxation ([3]; Oroxylin A 3 μM, after GLP (30 μM)): 24.6 ± 3.4%
- Percent of Maximum Control Relaxation ([3]; Oroxylin A 3 μM, after IBT (100 nM)): 16.8 ± 3.1%
- Percent of Maximum Control Relaxation ([3]; Oroxylin A 3 μM, after INDO (30 μM)): 23.0 ± 1.8%
- Percent of Maximum Control Relaxation ([3]; Oroxylin A 3 μM, after L-NNA (60 μM)): 26.9 ± 3.4%
- Percent of Maximum Control Relaxation ([3]; Oroxylin A 3 μM, after MCN (5 μM)): 21.2 ± 3.4%
- Percent of Maximum Control Relaxation ([3]; Oroxylin A 3 μM, after TEA (1 mM)): 7.1 ± 3.0%
- Percent of Maximum Control Relaxation ([3]; Oroxylin A 3 μM, after TEA (10 mM)): 0** Percent
- Percent of Maximum Control Relaxation ([3]; Oroxylin A 3 μM, control (no inhibitor), n=12): 24.6 ± 1.9%
- Percent of Maximum Control Relaxation ([3]; Oroxylin A 10 μM, after 4-AP (10 mM)): 9.7 ± 2.0%
- Percent of Maximum Control Relaxation ([3]; Oroxylin A 10 μM, after ETI (10 μM)): 41.3 ± 4.4%
- Percent of Maximum Control Relaxation ([3]; Oroxylin A 10 μM, after GLP (30 μM)): 46.5 ± 7.1%
- Percent of Maximum Control Relaxation ([3]; Oroxylin A 10 μM, after IBT (100 nM)): 30.8 ± 5.2%
- Percent of Maximum Control Relaxation ([3]; Oroxylin A 10 μM, after INDO (30 μM)): 41.8 ± 5.6%
- Percent of Maximum Control Relaxation ([3]; Oroxylin A 10 μM, after L-NNA (60 μM)): 45.3 ± 6.0%
- Percent of Maximum Control Relaxation ([3]; Oroxylin A 10 μM, after MCN (5 μM)): 37.4 ± 4.5%
- Percent of Maximum Control Relaxation ([3]; Oroxylin A 10 μM, after TEA (1 mM)): 31.5 ± 6.6%
- Percent of Maximum Control Relaxation ([3]; Oroxylin A 10 μM, after TEA (10 mM)): 4.87 ± 1.5%
- Percent of Maximum Control Relaxation ([3]; Oroxylin A 10 μM, control (no inhibitor), n=12): 49.0 ± 3.4%
- Percent of Maximum Control Relaxation ([3]; Oroxylin A 30 μM, after 4-AP (10 mM)): 28.4 ± 6.7%
- Percent of Maximum Control Relaxation ([3]; Oroxylin A 30 μM, after ETI (10 μM)): 91.4 ± 1.5%
- Percent of Maximum Control Relaxation ([3]; Oroxylin A 30 μM, after GLP (30 μM)): 84.2 ± 7.1%
- Percent of Maximum Control Relaxation ([3]; Oroxylin A 30 μM, after IBT (100 nM)): 68.1 ± 7.2%
- Percent of Maximum Control Relaxation ([3]; Oroxylin A 30 μM, after INDO (30 μM)): 89.1 ± 3.6%
- Percent of Maximum Control Relaxation ([3]; Oroxylin A 30 μM, after L-NNA (60 μM)): 91.9 ± 2.8%
- Percent of Maximum Control Relaxation ([3]; Oroxylin A 30 μM, after MCN (5 μM)): 87.2 ± 2.6%
- Percent of Maximum Control Relaxation ([3]; Oroxylin A 30 μM, after TEA (1 mM)): 58.6 ± 6.7%
- Percent of Maximum Control Relaxation ([3]; Oroxylin A 30 μM, after TEA (10 mM)): 16.3 ± 2.0%
- Percent of Maximum Control Relaxation ([3]; Oroxylin A 30 μM, control (no inhibitor), n=12): 86.0 ± 2.6%
- EC50 ([3]; after ETI (10 μM), read-out: EC50): 8.1 µM
- EC50 ([3]; after GLP (30 μM), read-out: EC50): 11.2 µM
- EC50 ([3]; after IBT (100 nM), read-out: EC50): 15 µM
- EC50 ([3]; after INDO (30 μM), read-out: EC50): 10 µM
- EC50 ([3]; after L-NNA (60 μM), read-out: EC50): 11.4 µM
- EC50 ([3]; after MCN (5 μM), read-out: EC50): 10.5 µM
- EC50 ([3]; after TEA (1 mM), read-out: EC50): 21.5 µM
- EC50 ([3]; after TEA (10 mM), read-out: EC50): 39.3 µM
- EC50 ([3]; control (no inhibitor), n=12, read-out: EC50): 8.4 µM
- EC50 ([3]; endothelium-denuded arteries, U-46619, n=12, read-out: EC50 of relaxation): 8.4 µM
- EC50 ([3]; intact endothelium, pre-contracted with U-46619 (1 μM), n=4, read-out: EC50 of relaxation): 7.9 µM
- U-46619-induced active muscle tone ([3]; U-46619 (1 μM)): concentration-dependant inhibition
- U-46619-induced active muscle tone ([3]; U-46619 (1 μM), listed as Oroxylin A): in a concentration-dependent manner decreased
- Ca2+-activated K+ channel opening [3, 5]: is a Ca^2+— activated K^+ channel opener
- KATP channel opening [3, 5]: is not a KATP channel opener
- concentration at which maximum relaxation was achieved ([3]; intact endothelium, U-46619 (1 μM)): 30 µM
- LPS-rendered L-Arginine-induced relaxation [4]: significantly decreased

Reference: patent publication US6806257B1, “Flavones as inducible nitric oxide synthase inhibitors, cyclooxygenase-2 inhibitors and potassium channel activators” (priority 1999, dated 2004)
